In patent US20130261045A1, “GREEN TEA POLYPHENOL ALPHA SECRETASE ENHANCERS AND METHODS OF USE” (UNIVERSITY OF SOUTH FLORIDA, priority 2005, published 2013):

Legend:
[1] = test system: ADAM17; experiment: Western blot of ADAM17 in SweAPP N2a cells; format: cell-based, murine; conditions: EGCG treatment; data not shown
Protocol: Cultured cells were lysed in ice-cold lysis buffer described above, and an aliquot corresponding to 50 μg of total protein was electrophoretically separated using 16.5% Tris-tricine gels. Electrophoresed proteins were then transferred to PVDF membranes (Bio-Rad, Richmond, Calif.), washed in ddH2O, and blocked for 1 h at ambient temperature in Tris-buffered saline (TBS; Bio-Rad) containing 5% (w/v) non-fat dry milk. After blocking, membranes were hybridized for 1 h at ambient temperature with various primary antibodies. Membranes were then washed 3 times for 5 min each in ddH2O and incubated for 1 h at ambient temperature with the appropriate HRP-conjugated secondary antibody (1:1,000, Pierce Biotechnology, Inc. Rockford, Ill.). All antibodies were diluted in TBS containing 5% (w/v) of non-fat dry milk. Blots were developed using the luminol reagent (Pierce Biotechnology). Densitometric analysis was done using the Fluor-S MultiImager™ with Quantity One™ software (Bio-Rad). For examining sAPP-α, conditioned medium was collected following treatment according to a modified protocol from Chen and Fernandez (Chen et al., 2004). sAPP-α was extracted using 3K Nanosep centrifugal filters (Pall Life Sciences, Ann Arbor, Mich.) and protein concentrate was prepared for the aforementioned electrophoresis. […]

[2] = test system: ADAM10; experiment: Western blot of ADAM10 maturation in N9 microglial cells; format: cell-based; conditions: various doses, 8 h
Protocol: (§1) Cultured cells were lysed in ice-cold lysis buffer described above, and an aliquot corresponding to 50 μg of total protein was electrophoretically separated using 16.5% Tris-tricine gels. Electrophoresed proteins were then transferred to PVDF membranes (Bio-Rad, Richmond, Calif.), washed in ddH2O, and blocked for 1 h at ambient temperature in Tris-buffered saline (TBS; Bio-Rad) containing 5% (w/v) non-fat dry milk. After blocking, membranes were hybridized for 1 h at ambient temperature with various primary antibodies. Membranes were then washed 3 times for 5 min each in ddH2O and incubated for 1 h at ambient temperature with the appropriate HRP-conjugated secondary antibody (1:1,000, Pierce Biotechnology, Inc. Rockford, Ill.). All antibodies were diluted in TBS containing 5% (w/v) of non-fat dry milk. Blots were developed using the luminol reagent (Pierce Biotechnology). Densitometric analysis was done using the Fluor-S MultiImager™ with Quantity One™ software (Bio-Rad). […] Antibodies used for Western blot included: antibody 369 (which recognizes the carboxyl-terminus of APP; 1:1,500), clone 22C11 (against the amino-terminus of APP; 1:1,500), clone 6E10 (against amino acids 1-17 of Aβ; 1:1,500), anti-ADAM9 (1:500), and antibodies against ADAM10 (1:500), ADAM17 (1:500) or actin (1:1,500; as an internal reference control).

[3] = test system: ADAM10; experiment: Western blot of ADAM10 maturation in parental (non-transfected) N2a cells; format: cell-based, murine; conditions: various doses, 8 h
Protocol: as §1

[4] = test system: ADAM10; experiment: Western blot of ADAM10 maturation in primary murine microglial cultures; format: cell-based; conditions: various doses, 8 h
Protocol: Cultured cells were lysed in ice-cold lysis buffer described above, and an aliquot corresponding to 50 μg of total protein was electrophoretically separated using 16.5% Tris-tricine gels. Electrophoresed proteins were then transferred to PVDF membranes (Bio-Rad, Richmond, Calif.), washed in ddH2O, and blocked for 1 h at ambient temperature in Tris-buffered saline (TBS; Bio-Rad) containing 5% (w/v) non-fat dry milk. After blocking, membranes were hybridized for 1 h at ambient temperature with various primary antibodies. Membranes were then washed 3 times for 5 min each in ddH2O and incubated for 1 h at ambient temperature with the appropriate HRP-conjugated secondary antibody (1:1,000, Pierce Biotechnology, Inc. Rockford, Ill.). All antibodies were diluted in TBS containing 5% (w/v) of non-fat dry milk. Blots were developed using the luminol reagent (Pierce Biotechnology). Densitometric analysis was done using the Fluor-S MultiImager™ with Quantity One™ software (Bio-Rad). […] Antibodies used for Western blot included: antibody 369 (which recognizes the carboxyl-terminus of APP; 1:1,500), clone 22C11 (against the amino-terminus of APP; 1:1,500), clone 6E10 (against amino acids 1-17 of Aβ; 1:1,500), anti-ADAM9 (1:500), and antibodies against ADAM10 (1:500), ADAM17 (1:500) or actin (1:1,500; as an internal reference control). […]

[5] = test system: α-secretase; experiment: α-secretase cleavage activity kit, lysates of APP-transfected N2a cells; format: cell-based, murine; conditions: first 1 to 3 hours after EGCG
[6] = test system: Aβ1-40 and Aβ1-42; experiment: Aβ1-40/Aβ1-42 ELISA, conditioned media of SweAPP N2a cells (Examples 6-7, with or without siRNA knock-down); format: cell-based, murine; conditions: various doses of EGCG, 8 h
Description: FIGS. 8A-8H show EGCG-induced ADAM10 activation correlates with APP α-secretase cleavage in vitro. […] Data were represented as % change relative to control (medium from cultured SweAPP N2a cells or primary neuronal cells without any treatment).
FIGS. 10A-10C show ADAM10 is required for EGCG-induced APP α-secretase cleavage. […] In FIG. 10A, cell lysates were subjected to WB for APP CTFs and ADAM10 cleavage analyses. […] In FIG. 10B, cell culture media were subjected to WB for sAPP-α secretion. […] In FIG. 10C, cell culture media were subjected to Aβ ELISA. Data are represented as % change relative to control (medium from cultured SweAPP N2a cells without any treatment). […]
Conditioned media were collected and analyzed at a 1:1 dilution using the method as previously described (Tan et al., 2002) and values were reported as percentage of Aβ1-x secreted relative to control. Quantitation of total Aβ species was performed according to published methods (Marambaud, P. et al., 2005). […] The optical density of each well was immediately determined by a microplate reader at 450 nm. In addition, Aβ1-40, or Aβ1-42 was separately quantified in these samples using the Aβ1-40 Aβ1-42 ELISA kits (IBL-America, Minneapolis, Minn.) in accordance with the manufacturer's instructions. In all cases, Aβ levels were expressed as a percentage of control (conditioned medium from untreated SWeAPP N2a cells). […]

O=C(O[C@@H]1Cc2c(O)cc(O)cc2O[C@@H]1c1cc(O)c(O)c(O)c1)c1cc(O)c(O)c(O)c1 [EGCG, (−)-epigallocatechin-3-gallate]
ADAM17 expression [1]: no significant effects | ADAM10 maturation [2]: dose-dependently increased | ADAM10 maturation [3]: dose-dependently increased | mature ADAM10 [4]: dose-dependent increases | α-secretase cleavage activity in cell lysate [5]: markedly elevated | Aβ1-40 concentration [6]: dose-dependent reductions | Aβ1-42 concentration [6]: dose-dependent reductions
